{
  "source": "patent US4602015A",
  "about": "“2-piperazinopyrimidine salt and pharmaceutical compositions containing it” (priority 1983, dated 1986)",
  "key": {"[1]": {"test_system": "prochlorperazine-induced catalepsy", "experiment": "antagonism of prochlorperazine-induced catalepsy (cork test, oral)", "assay_type": "in vivo, Wistar male rats", "conditions": "rat; for Prochlorperazine Catal. antag. ED50: 1 h before prochlorperazine 10 mg/kg s.c., interval in parentheses printed on next line: napsilate (5.0-6.4), base (12-45)", "method": "The antidepressive activity of the compound of the invention has been evaluated in the test of antagonism of prochlorperazine-induced catalepsy (K. Biziere et al., Arzneimittel Forschung, 1982, 32 (II), 824-831). The 2-(1-piperazinyl)pyrimidine napsilate and the corresponding free base, as reference compound, were administered orally to groups of 10 Wistar male rats weighing 220-240 g; at the same time control animals were treated with saline. One hour later, prochlorperazine was administered subcutaneously at a dose of 10 mg/kg. Five hours after this administration, the number of cataleptic animals was assessed by the cork test. According to this test the animals were placed with their forepaws on a stand formed by three superposed corks (11 cm total height) and forced to maintain this position for 20 seconds at least. The performances of each group of animals were compared with those of the controls having received the vehicle and prochlorperazine only."}, "[2]": {"test_system": "rotational behaviour after unilateral lesion of the striatum", "experiment": "rotational behaviour in mice after unilateral 6-hydroxydopamine lesion of the striatum", "assay_type": "in vivo, Female Charles River CD1 mice", "conditions": "for Variation % of turns as compared to controls: Table II, mouse, oral, 1 h after administration, doses 0.15 (base), 0.18 (hydrochloride), 0.34 (napsilate) mg/kg = 0.15 mg/kg free base, ** p < 0.01, ns not significant", "from_the_text": "(§1) The dopaminergic mechanism of the compound of the invention was studied in comparison with the corresponding free base and its hydrochloride by analysing the rotational behaviour in mice after unilateral lesion of the striatum (P. Protais et al., J. Pharmacol. 1976, 7, 251-255).\n(§2) Female Charles River CD1 mice weighing 20-24 g were previously subjected to a unilateral lesion of the striatum by stereotaxic injection of 8 mcg/animal of 6-hydroxydopamine. A week later, the 2-(1-piperazinyl)-pyrimidine napsilate, the 2-(1-piperazinyl)pyrimidine hydrochloride and the free base were administered by oral route to groups of six mice at a dose corresponding to 0.15 mg/kg of free base. The number of turns was recorded, during 2 minutes, one hour after the administration of the three products. The turns ipsilateral to the lesion were plotted as positive values, the contralateral turns were plotted as negative values. The algebric sum of turns for each group of treated animals was compared to that of control animals treated with the vehicle (saline) only."}, "[3]": {"test_system": "rotational behaviour after unilateral lesion of the striatum", "experiment": "rotational behaviour in lesioned mice, time course 60, 180 and 360 minutes", "assay_type": "in vivo, Female Charles River CD1 mice", "conditions": "for Variation % of turns after 60 minutes: Table III, mouse, oral, dose corresponding to 0.15 mg/kg free base, ** p < 0.01, ns not significant", "from_the_text": "as §1, §2\nThe dopaminergic action of the compound of the present invention has also been evaluated in the time in comparison with the corresponding free base and the hydrochloride thereof."}, "[4]": {"experiment": "psychotropic activity (general statement)", "assay_type": "in vivo"}, "[5]": {"test_system": "rotational behaviour after unilateral lesion of the striatum", "experiment": "rotational behaviour in lesioned mice, time course 60, 180 and 360 minutes", "assay_type": "in vivo, Female Charles River CD1 mice", "conditions": "Table III, mouse, oral, dose corresponding to 0.15 mg/kg free base, ** p < 0.01, ns not significant"}, "[6]": {"conditions": "H. W. Stewart et al., J. Org. Chem. 1953; cited from earlier work"}},
  "data": [
    {"smiles": "c1cnc(N2CCNCC2)nc1", "note": "[2-(1-piperazinyl)pyrimidine napsilate, 2-(1-piperazinyl)pyrimidine 2-naphtalenesulfonate]", "values": [
      {"measurement": "Prochlorperazine Catal. antag. ED50", "setting": "[1]", "value": 5.7, "unit": "mcmol/kg"},
      {"measurement": "oral activity relative to corresponding free base (times more active)", "setting": "[1]; ratio versus free base", "value": "about 4 times"},
      {"measurement": "Variation % of turns as compared to controls", "setting": "[2]", "value": -117, "unit": "%"},
      {"measurement": "dopaminergic activity (in words)", "setting": "[2]; comment on Table II", "value": "dopaminergic activity higher than that of the free base"},
      {"measurement": "negative variation of turns", "setting": "[2]; comment on Table II, contralateral turns exceed ipsilateral turns", "value": "higher than 100%"},
      {"measurement": "Variation % of turns after 60 minutes", "setting": "[3]", "value": -117, "unit": "%"},
      {"measurement": "activity with time (in words)", "setting": "[3]; comment on Table III", "value": "increases significantly with the time"},
      {"measurement": "potency versus reference products (in words)", "setting": "[3]; comment on Table III, versus free base and hydrochloride", "value": "more potent than the reference products"},
      {"measurement": "psychotropic activity (in words)", "setting": "[4]; dopaminergic mechanism, antipsychotic, antidepressive, tranquillizing-sedative", "value": "very good psychotropic activity"},
      {"measurement": "activity versus free base and hydrochloride (in words)", "setting": "[4]; in the absolute sense", "value": "much more active"},
      {"measurement": "duration of activity (in words)", "setting": "[4]; in vivo", "value": "long-lasting and increases with time"},
      {"measurement": "Variation % of turns after 180 minutes", "setting": "[5]", "value": -126, "unit": "%"},
      {"measurement": "Variation % of turns after 360 minutes", "setting": "[5]", "value": -147, "unit": "%"}
    ]},
    {"smiles": "c1cnc(N2CCNCC2)nc1", "note": "[2-(1-piperazinyl)pyrimidine base, 2-(1-piperazinyl)pyrimidine]", "values": [
      {"measurement": "Prochlorperazine Catal. antag. ED50", "setting": "[1]", "value": 24, "unit": "mcmol/kg"},
      {"measurement": "Variation % of turns as compared to controls", "setting": "[2]", "value": -94, "unit": "%"},
      {"measurement": "effect on algebric sum of turns (in words)", "setting": "[2]; comment on Table II", "value": "significantly reduces the algebric sum of turns"},
      {"measurement": "Variation % of turns after 60 minutes", "setting": "[3]", "value": -94, "unit": "%"},
      {"measurement": "activity with time (in words)", "setting": "[3]; comment on Table III", "value": "tends to decrease with the time"},
      {"measurement": "Variation % of turns after 180 minutes", "setting": "[5]", "value": -62, "unit": "%"},
      {"measurement": "Variation % of turns after 360 minutes", "setting": "[5]", "value": -60, "unit": "%"},
      {"measurement": "analgesic or antifilarial activity (in words)", "setting": "[6]", "value": "none of which has shown analgesic or antifilarial activity"}
    ]},
    {"smiles": "Cl.c1cnc(N2CCNCC2)nc1", "note": "[2-(1-piperazinyl)pyrimidine hydrochloride]", "values": [
      {"measurement": "Variation % of turns as compared to controls", "setting": "[2]", "value": -29, "unit": "%"},
      {"measurement": "dopaminergic activity (in words)", "setting": "[2]; comment on Table II", "value": "nearly inactive"},
      {"measurement": "effect on algebric sum of turns (in words)", "setting": "[2]; comment on Table II", "value": "no significant effect"},
      {"measurement": "Variation % of turns after 60 minutes", "setting": "[3]", "value": -29, "unit": "%"},
      {"measurement": "activity with time (in words)", "setting": "[3]; comment on Table III", "value": "inactive with the time too"},
      {"measurement": "Variation % of turns after 180 minutes", "setting": "[5]", "value": -28, "unit": "%"},
      {"measurement": "Variation % of turns after 360 minutes", "setting": "[5]", "value": -22, "unit": "%"}
    ]}
  ]
}
